Results from US20150072968A1, “Treating Infections with Ceftolozane/Tazobactam in Subjects Having Impaired Renal Function” (Calixa Therapeutics, Inc., priority 2013, published 2015).
Blank lines part the entries; values can stand above or below the compound they belong to.

Experiments:
[1] = system: E. coli; assay: Baseline susceptibility testing of cUTI isolates, CLSI broth microdilution; assay type: cell-based, Escherichia coli
Method: (§1) 764 isolates of Gram-negative aerobic organisms were isolated from 800 patients in the microbiological modified intent-to-treat population (enrolled in 20 countries in Eastern Europe, North America, South America and 5 countries outside of these regions). Susceptibility (S) testing was performed with ceftolozane/tazobactam at a fixed 4 μg/mL of tazobactam and 10 antibiotic comparators using CLSI broth microdilution methods. ESBL enzymes were identified by PCR.

[2] = system: P. aeruginosa; assay: as above; assay type: cell-based, Pseudomonas aeruginosa; details: comparators
Method: as §1

[3] = system: gram-negative pathogens; assay: as above; assay type: cell-based; details: mMITT population; ceftolozane/tazobactam breakpoint ≦8 mg/1, levofloxacin CLSI criteria
Method: as §1

[4] = human, in vivo, 7 days
[5] = system: complicated urinary tract infections (including pyelonephritis); assay: Phase 3 study of complicated urinary tract infections, composite microbiological and clinical cure at TOC visit; assay type: in vivo, human; details: for Composite Cure Rate at TOC: levofloxacin-resistant population
From the text: (§2) The primary efficacy endpoint was the composite microbiological and clinical cure response at the test-of-cure (TOC) visit in the microbiologically modified intent-to-treat (mMITT) population, which included all patients who received study medication and had at least 1 baseline uropathogen. The key secondary efficacy endpoint was the composite microbiological and clinical cure response at the TOC visit in the microbiologically evaluable (ME) population, which included protocol-adherent mMITT patients with a urine culture at the TOC visit.

[6] = system: Escherichia coli; assay: Phase 3 cUTI study, per pathogen microbiological eradication; assay type: in vivo; details: levofloxacin-resistant population, ME
From the text: as §2

[7] = system: Pseudomonas aeruginosa; assay: as above; assay type: in vivo; details: levofloxacin-resistant population, ME
From the text: as §2

[8] = system: Klebsiella pneumoniae; assay: as above; assay type: in vivo; details: levofloxacin-resistant population, ME
From the text: as §2

[9] = system: Enterobacteriaceae; assay: as above; assay type: in vivo; details: levofloxacin-resistant population, ME
From the text: as §2

[10] = system: Klebsiella pneumoniae (KPN); assay: Baseline susceptibility testing of cUTI isolates, CLSI broth microdilution; assay type: cell-based
Method: as §1

[11] = Phase 1 single dose PK of 750 mg ceftolozane/tazobactam in severe renal impairment and ESRD on hemodialysis (Example 8); assay type: in vivo, human
Method: This was a Phase 1, multicenter, prospective, open-label study of 750 mg ceftolozane/tazobactam (as CXA-201) administered IV in male and female adult subjects with severe renal impairment (estimated CLCR<30 mL/min) and subjects with end-stage renal disease (ESRD) on hemodialysis (HD). The primary objective of the study was to determine the PK profile of ceftolozane/tazobactam in subjects with severe renal impairment and subjects with ESRD on HD and to determine the effect of HD on the clearance of ceftolozane/tazobactam.
Subjects with severe renal impairment received a single IV 1-hour infusion of 750 mg ceftolozane/tazobactam on Day 1. […] Subjects in this cohort received an IV dose of 750 mg ceftolozane/tazobactam as a 1 hour infusion immediately after their first HD session on Day 1 (postdialysis, approximately 72 hours prior to the next HD session) and a second dose of ceftolozane/tazobactam approximately 2 hours before their second HD session on Day 4 of the study. Infusion of ceftolozane/tazobactam was completed approximately 1 hour before the start of HD.
Subjects in both cohorts had urine (if not anuric) and plasma samples collected for determination of levels of ceftolozane, tazobactam and the M1 metabolite of tazobactam; subjects in the ESRD on HD cohort also had dialysate fluid samples collected for PK assessment. Plasma, urine, and dialysate levels of ceftolozane, tazobactam, and its metabolite M1 collected over a prespecified interval were determined by LC/MS/MS assay.
All subjects underwent hemodialysis for 3 to 4 hours using a high-flux membrane (either 1.4, 1.8, or 1.9 m^2) on Days 1, 4, and 6 as scheduled. Average blood flow rate was 264 to 600 mL/min and average dialysis flow rate was either 600 or 800 mL/min for all subjects with ESRD.

[12] = system: complicated intra-abdominal infections; assay: Phase 3 study of complicated intra-abdominal infections, clinical response at TOC visit; assay type: in vivo, human
Method: (§3) A total of 979 adults hospitalized with complicated intra-abdominal infections were randomized and received study medications in a multinational, double-blind study comparing CXA-201 (1.5 g IV every 8 hours) plus metronidazole (500 mg IV every 8 hours) to meropenem (1 g IV every 8 hours) for 4 to 14 days of therapy. Complicated intra-abdominal infections included appendicitis, cholecystitis, diverticulitis, gastric/duodenal perforation, perforation of the intestine, and other causes of intra-abdominal abscesses and peritonitis. The primary efficacy endpoint was clinical response at the test-of-cure (TOC) visit in the microbiological intent-to-treat (MITT) population, which included all patients who had at least 1 baseline intra-abdominal pathogen. The key secondary efficacy endpoint was clinical response at the TOC visit in the microbiologically evaluable (ME) population, which included all protocol-adherent MITT patients.

[13] = system: Bacteroides ovatus; assay: Phase 3 cIAI study, per pathogen clinical cure; assay type: in vivo; details: ME population
Method: as §3

[14] = system: Klebsiella oxytoca; assay: Phase 3 cIAI study, per pathogen clinical cure; assay type: in vivo; details: ME population
Method: as §3

[15] = system: Enterobacter cloacae; assay: Phase 3 cIAI study, per pathogen clinical cure; assay type: in vivo; details: ME population
Method: as §3

[16] = system: Streptococcus salivarius; assay: Phase 3 cIAI study, per pathogen clinical cure; assay type: in vivo; details: ME population
Method: as §3

[17] = system: Streptococcus anginosus; assay: Phase 3 cIAI study, per pathogen clinical cure; assay type: in vivo; details: ME population
Method: as §3

[18] = system: Escherichia coli; assay: Phase 3 cIAI study, per pathogen clinical cure; assay type: in vivo; details: ME population
Method: as §3

[19] = system: Pseudomonas aeruginosa; assay: Phase 3 cIAI study, per pathogen clinical cure; assay type: in vivo; details: ME population
Method: as §3

[20] = system: Bacteroides thetaiotaomicron; assay: Phase 3 cIAI study, per pathogen clinical cure; assay type: in vivo; details: ME population
Method: as §3

[21] = system: Aerobic Gram-positive; assay: Phase 3 cIAI study, per pathogen clinical cure; assay type: in vivo; details: ME population
Method: as §3

[22] = system: Streptococcus constellatus; assay: Phase 3 cIAI study, per pathogen clinical cure; assay type: in vivo; details: ME population
Method: as §3

[23] = system: Bacteroides vulgatus; assay: Phase 3 cIAI study, per pathogen clinical cure; assay type: in vivo; details: ME population
Method: as §3

[24] = system: Klebsiella pneumoniae; assay: Phase 3 cIAI study, per pathogen clinical cure; assay type: in vivo; details: ME population
Method: as §3

[25] = system: Anaerobic Gram-negative; assay: Phase 3 cIAI study, per pathogen clinical cure; assay type: in vivo; details: ME population
Method: as §3

[26] = system: Aerobic Gram-negative; assay: Phase 3 cIAI study, per pathogen clinical cure; assay type: in vivo; details: ME population
Method: as §3

[27] = system: Proteus mirabilis; assay: Phase 3 cIAI study, per pathogen clinical cure; assay type: in vivo; details: ME population
Method: as §3

[28] = system: Bacteroides fragilis; assay: Phase 3 cIAI study, per pathogen clinical cure; assay type: in vivo; details: ME population
Method: as §3

[29] = ESRD on HD, second IV infusion of 750 mg on Day 4 (during HD)
[30] = ESRD on HD, second infusion Day 4, start of infusion to end of dialysis
[31] = severe renal impairment, single IV 1-hour infusion of 750 mg ceftolozane/tazobactam

SMILES: C[C@H]1COc2c(N3CCN(C)CC3)c(F)cc3c(=O)c(C(=O)O)cn1c23 [Levofloxacin]
MIC50 ([1]; E. coli baseline isolates): 0.03 mg/1 | MIC90 ([1]; E. coli baseline isolates): > 4 mg/1 | E. coli isolates susceptible ([1]; mMITT population, regardless of ESBL phenotype): 74.1% | susceptibility of isolates [2]: 35.0% | gram-negative pathogens isolated at baseline susceptible [3]: 70.7% | adverse event gastrointestinal symptoms [4]: 11.4% | adverse event headache [4]: 4.9% | incidence of treatment-limiting adverse events [4]: < 2% | patients with adverse events [4]: 34.4% | Composite microbiological and clinical cure rate at TOC visit ([5]; ME population): 266/353 (75.4) % | Composite Cure Rate at TOC ([5]; ME): 43.4% | Composite Cure Rate at TOC ([5]; mMITT): 39.3% | Composite microbiological and clinical cure rate at TOC visit ([5]; mMITT population): 275/402 (68.4) % | Per-pathogen Microbiological Eradication Rate at TOC [6]: 44.1% | Per-pathogen Microbiological Eradication Rate at TOC [7]: 37.5 (3/8) % | Per-pathogen Microbiological Eradication Rate at TOC [8]: 30.0 (3/10) % | Per-pathogen Microbiological Eradication Rate at TOC [9]: 45.2%

SMILES: CC(C)(O/N=C(\C(=O)N[C@@H]1C(=O)N2C(C(=O)[O-])=C(C[n+]3ccccc3)CS[C@H]12)c1csc(N)n1)C(=O)O [ceftazidime]
susceptibility of isolates [2]: 40.0% | isolates inhibited at ≦8 μg/mL [10]: 58.2%

Cmax, Mean (CV %) ([11]; ESRD on HD, Day 1 IV infusion of 750 mg (non-hemodialysis phase)): 10.0 (40) μg/mL | AUClast, Mean (CV %) ([11]; ESRD on HD, Day 1 IV infusion of 750 mg (non-hemodialysis phase), through 48 hours): 367 (42) μg·h/mL | Cmax, Mean (CV %) [11, 29]: 10.8 (46) μg/mL | tmax, Median (minimum, maximum) [11, 29]: 1.5 (0.5, 24.0) h | AUClast, Mean (CV %) ([11]; ESRD on HD, second IV infusion of 750 mg on Day 4 (during HD), through 44 hours): 176 (40) μg·h/mL | AUClast, Mean (CV %) ([11]; ESRD on HD, second infusion Day 4, approximately 6 hours from start of infusion to end of dialysis): 23.8 (44) μg·h/mL | Cmax, Mean (CV %) [11, 30]: 10.6 (49) μg/mL | t1/2, Mean (CV %) [11, 30]: 1.54 (48) h | tmax, Median (minimum, maximum) [11, 30]: 1.5 (0.5, 1.5) h | AUC∞, Mean (CV %) [11, 31]: 60.3 (30) μg·h/mL | t1/2, Mean (CV %) [11, 31]: 12.0 (29) h | Cmax, Mean (CV %) ([11]; severe renal impairment, single IV 1-hour infusion of 750 mg ceftolozane/tazobactam, plasma): 2.2 (20) μg/mL | AUClast, Mean (CV %) ([11]; severe renal impairment, single IV 1-hour infusion of 750 mg ceftolozane/tazobactam, plasma, through 48 hours): 53.7 (25) μg·h/mL | Exposure (AUC48h) After HD (Day 1), Median (Range) ([11]; subjects with ESRD): 389 (99.8 − 538) μg·h/mL | Exposure (AUC48h) During HD (Day 3), Median (Range) ([11]; subjects with ESRD): 182 (78 − 255) μg·h/mL | removed by dialysis ([11]; subjects with ESRD on HD): ~51% | AUC48h Ratio (Day 3:1), Median (Range) ([11]; subjects with ESRD, during HD vs after HD): 0.49 (0.38 − 0.78) | Percent Removed, Median (Range) ([11]; subjects with ESRD, hemodialysis): 51 (22 − 63) Percent
SMILES: C[C@](Cn1ccnn1)([C@@H](N)C(=O)O)S(=O)O [M1 Metabolite]

SMILES: C[C@@H](O)[C@H]1C(=O)N2C(C(=O)O)=C(SCCN=CN)C[C@H]12 [imipenem]
susceptibility of isolates [2]: 45.0%

SMILES: NCC[C@H](O)C(=O)N[C@@H]1C[C@H](N)[C@@H](O[C@H]2O[C@H](CN)[C@@H](O)[C@H](O)[C@H]2O)[C@H](O)[C@H]1O[C@H]1O[C@H](CO)[C@@H](O)[C@H](N)[C@H]1O [amikacin]
susceptibility of isolates [2]: 55.0%

SMILES: CO/N=C(\C(=O)N[C@@H]1C(=O)N2C(C(=O)[O-])=C(C[N+]3(C)CCCC3)CS[C@H]12)c1csc(N)n1 [cefepime]
susceptibility of isolates [2]: 50.0%

SMILES: C[C@@H](O)[C@H]1C(=O)N2C(C(=O)O)=C(S[C@@H]3CN[C@H](C(=O)N(C)C)C3)[C@H](C)[C@H]12 [Meropenem]
Clinical cure rate at TOC visit ([12]; ME population): 304/321 (94.7) % | Clinical cure rate at TOC visit ([12]; MITT population): 364/417 (87.3) % | Per pathogen clinical cure rate [13]: 42/42 (100) % | Per pathogen clinical cure rate [14]: 21/22 (95.5) % | Per pathogen clinical cure rate [15]: 22/22 (100) % | Per pathogen clinical cure rate [16]: 8/8 (100) % | Per pathogen clinical cure rate [17]: 23/23 (100) % | Per pathogen clinical cure rate ([18]; Escherichia coli): 216/231 (93.5) % | Per pathogen clinical cure rate ([18]; Escherichia coli (CTX-M-14/15 ESBL-producing)): 7/9 (77.8) % | Per pathogen clinical cure rate ([18]; Escherichia coli (EBSL-producing)): 18/20 (90.0) % | Per pathogen clinical cure rate [19]: 27/29 (93.1) % | Per pathogen clinical cure rate [20]: 40/43 (93.0) % | Per pathogen clinical cure rate [21]: 170/185 (91.9) % | Per pathogen clinical cure rate [22]: 20/23 (87.0) % | Per pathogen clinical cure rate [23]: 21/22 (95.5) % | Per pathogen clinical cure rate ([24]; Klebsiella pneumonia): 22/25 (88.0) % | Per pathogen clinical cure rate ([24]; Klebsiella pneumoniae (CTX-M-15 ESBL-producing)): 7/9 (77.8) % | Per pathogen clinical cure rate ([24]; Klebsiella pneumoniae (ESBL-producing)): 3/4 (75.0) % | Per pathogen clinical cure rate [25]: 132/137 (96.4) % | Per pathogen clinical cure rate [26]: 273/291 (93.8) % | Per pathogen clinical cure rate [27]: 9/10 (90.0) % | Per pathogen clinical cure rate [28]: 56/57 (98.2) %
